Reference: patent publication US10011614B2, “Bis-β-carboline compound and preparation method, pharmaceutical composition and use thereof” (XINJIANG HUASHIDAN PHARMACEUTICAL RESEARCH CO., LTD., priority 2012, dated 2018)

What was measured:
[1] = system: SK-OV-3 (human ovarian cancer cells); experiment: Antitumor screening in vitro, MTT assay, SK-OV-3; format: cell-based; conditions: 48 hours, SK-OV-3 cells
Method: (§1) Cell lines: BGC (human gastric cancer cells), A375 (human malignant melanoma cells), 769-P (human renal carcinoma cells), KB (human oral epidermoid carcinoma cells), SK-OV-3 (human ovarian cancer cells), etc, were selected, and the test method was the MTT assay. Cisplatin was as a positive control.
(§2) Specific methods are as follows: cells growing well in the logarithmic phase were seeded in 96-well plates at a concentration of 1×10^4 cells/ml, and then were placed in 37° C., containing 5% CO2 incubator for 24 hours. After discarding the old solution, changed fresh medium, and added sterilization treatment compound, and then cultured for 48 hours. After discarding the culture medium, 20 ul RPMI1640 medium containing 5 mg/ml MTT were added to each well in 96-well plates and cells were cultured for 4 hours. After the supernatant was carefully removed, 100 μl DMSO was added to each well, and the plates were Oscillated about 10 min to dissolve the precipitate, followed by detecting OD value in wavelength 490 nm by the microplate reader. Cell survival rate for each sample concentrations was determined by the following formula: The mean survival rate %=the average OD value of sample group/the average OD value of control group×100%
(§3) Morphological studies by mapping with the logarithm of the drug concentration and the mean survival rate % of each sample to obtain IC50 values for each sample.

[2] = system: 769-P (human renal carcinoma cells); experiment: Antitumor screening in vitro, MTT assay, 769-P; format: cell-based; conditions: 48 hours, 769-P cells
Method: as §1, §2, §3

[3] = system: A375 (human malignant melanoma cells); experiment: Antitumor screening in vitro, MTT assay, A375; format: cell-based
Method: as §1, §2, §3

[4] = system: KB (human oral epidermoid carcinoma cells); experiment: Antitumor screening in vitro, MTT assay, KB; format: cell-based; conditions: 48 hours
Method: as §1, §2, §3

[5] = system: BGC (human gastric cancer cells); experiment: Antitumor screening in vitro, MTT assay, BGC; format: cell-based; conditions: 48 hours
Method: as §1, §2, §3

IC50 [1] [µM]	IC50 [2] [µM]	IC50 ([3]; 48 hours) [µM]	IC50 [4] [µM]	IC50 [5] [µM]	IC50 ([1]; Homo sapiens) [µM]	IC50 ([2]; Homo sapiens) [µM]	IC50 ([3]; Homo sapiens, A-375, 48 hours) [µM]	IC50 ([4]; Homo sapiens) [µM]	IC50 ([5]; Homo sapiens) [µM]	melting point [°C]	Compound
					> 300	15.3	10.2	> 300	23.5		c1ccc2c(c1)c1ccncc1n2CCCCCn1c2ccccc2c2ccncc21 [Compound 2, 1,5-bis(β-carboline-9-yl)pentane]
					38.9	12.8	10.8	13.9	13.8		c1ccc2c(c1)c1ccncc1n2CCCCCCn1c2ccccc2c2ccncc21 [Compound 3, 1,6-bis(β-carboline-9-yl) hexane]
212	53	286	> 300	> 300							c1ccc2c(c1)c1ccncc1n2CCCCCCCn1c2ccccc2c2ccncc21 [Compound 4, 1,7-bis(11-carboline-9-yl) heptane]
					33.5	> 300	285	> 300	> 300	180 to 181	c1ccc2c(c1)c1ccncc1n2CCCCCCCCn1c2ccccc2c2ccncc21 [Compound 5, 1,8-bis(β-carboline-9-yl) octane]
					26.4	145	69.5	160	252	239 to 240	Cc1nccc2c3ccccc3n(CCCn3c4ccccc4c4ccnc(C)c43)c12 [Compound 6, 1,3-bis (1-methyl-β-carboline-9-yl) propane]
					18.8	> 300	> 300	> 300	> 300	213 to 214	Cc1nccc2c3ccccc3n(CCCCCn3c4ccccc4c4ccnc(C)c43)c12 [Compound 8, 1,5-bis(1-methyl-β-carboline-9-yl)pentane]
					16.9	149	38	87.9	134	189 to 190	Cc1nccc2c3ccccc3n(CCCCCCCn3c4ccccc4c4ccnc(C)c43)c12 [Compound 10, 1,7-bis(1-methyl-β-carboline-9-yl) heptane]
					61.9	291	67.2	> 300	> 300	155 to 156	Cc1nccc2c3ccccc3n(CCCCCCCCCn3c4ccccc4c4ccnc(C)c43)c12 [Compound 12, 1,9-bis(1-methyl-β-carboline-9-yl) nonane]
					8.5	16.2	> 300	> 300	> 300	152 to 154	Cc1nccc2c3ccccc3n(CCCCCCCCCCn3c4ccccc4c4ccnc(C)c43)c12 [Compound 13, 1,10-bis(1-methyl-β-carboline-9-yl) decane]
					1.7	81	< 1.38	5	58.6	180 to 181	COc1ccc2c3ccnc(C)c3n(CCCCCn3c4cc(OC)ccc4c4ccnc(C)c43)c2c1 [Compound 15, 1,5-bis(7-methoxy-1-methyl-β-carboline-9-yl)pentane]
					10.2	114	113	38.6	104		COc1ccc2c3ccnc(C)c3n(CCCCCCCC(C)n3c4cc(OC)ccc4c4ccnc(C)c43)c2c1 (stereo not drawn) [Compound 18, 1,8-bis(7-methoxy-1-methyl-β-carboline-9-yl) nonane]
> 300	3.3	4	7.6	> 300							COc1cc(-c2nccc3c4ccccc4n(CCCCCCCn4c5ccccc5c5ccnc(-c6cc(OC)c(OC)c(OC)c6)c54)c23)cc(OC)c1OC [Compound 20, 1,7-bis[1-(3,4,5-trimethoxy)phenyl-β-carboline-9-yl) heptane]
					> 300	4.3	> 300	> 300	> 300	208 to 209	Cc1nccc2c3cc(Br)ccc3n(CCCCC(C)n3c4ccc(Br)cc4c4ccnc(C)c43)c12 (stereo not drawn) [Compound 21, 1,5-bis(6-bromo-1-methyl-β-carboline-9-yl) hexane]
					17.1	95.4	18.5	19.8	194		Cc1nccc2c3ccc(OC(C)C)cc3n(CCCCCCn3c4cc(OC(C)C)ccc4c4ccnc(C)c43)c12 [Compound 25, 1,6-bis(7-isopropoxy-1-methyl-β-carboline-9-yl) hexane]
> 300	44.6	218	> 300	> 300							CCOC(=O)c1cc2c3ccccc3n(CCCCCCCCCn3c4ccccc4c4cc(C(=O)OCC)nc(-c5cc(OC)c(OC)c(OC)c5)c43)c2c(-c2cc(OC)c(OC)c(OC)c2)n1 [Compound 28, 1,9-bis[1-(3,4.5-trimethoxy)phenyl-β-carboline-3-ethyoxylcarbonyl-9-yl]nonane]
					14.9	> 300	5.3	13.3	14.1		c1cncc(-c2nccc3c4ccccc4n(CCCCCCn4c5ccccc5c5ccnc(-c6cccnc6)c54)c23)c1 [Compound 32, 1,6-bis[1-(pyridine-3-yl)-β-carboline-9-yl) hexane]
> 300	> 300	23.2	> 300	> 300							Clc1ccccc1-c1nccc2c3ccccc3n(CCCCCCn3c4ccccc4c4ccnc(-c5ccccc5Cl)c43)c12 [Compound 35]
					> 300	82.1	10.4	> 300	> 300		Clc1ccccc1-c1nccc2c3ccccc3n(CCCCCCCn3c4ccccc4c4ccnc(-c5ccccc5Cl)c43)c12 [Compound 36, 1,7-bis[1-(2-chlorophenyl)-β-carboline-9-yl) heptane]
> 300	3.8	7	> 300	> 300							O=[N+]([O-])c1ccc(Cl)c(-c2nccc3c4ccccc4n(CCCCCCn4c5ccccc5c5ccnc(-c6cc([N+](=O)[O-])ccc6Cl)c54)c23)c1 [Compound 37, 1,6-bis[1-(2-chloro-5-nitro-phenyl)-⊕-carboline-9-yl) hexane]
					> 300	4.6	19.6	> 300	> 300		CC(C)c1nccc2c3ccccc3n(CCCCCCCCCCn3c4ccccc4c4ccnc(C(C)C)c43)c12 [Compound 40, 1,10-bis[1-isopropyl-β-carboline-9-yl) decane]
					8.9	3.1	> 300	> 300	> 300		Brc1ccc2c(c1)c1ccncc1n2CCCCn1c2ccc(Br)cc2c2ccncc21 [Compound 41, 1,4-bis[6-bromo-βcarboline-9-yl) butane]

Compound	IC50 [1] [µM]	IC50 [2] [µM]	IC50 ([3]; 48 hours) [µM]	IC50 [4] [µM]	IC50 [5] [µM]	IC50 ([1]; Homo sapiens) [µM]	IC50 ([2]; Homo sapiens) [µM]	IC50 ([3]; Homo sapiens, A-375, 48 hours) [µM]	IC50 ([4]; Homo sapiens) [µM]	IC50 ([5]; Homo sapiens) [µM]	melting point [°C]
N.N.[Cl][Pt][Cl] [Cisplatin, reference compound]	4.2	11.6	39.2	13.1	17.3						
CCCCOc1ccc2c3ccnc(C)c3n(CCCCn3c4cc(OCCCC)ccc4c4ccnc(C)c43)c2c1 [Compound 23, 1,4-bis(7-n-butoxy-1-methyl-β-carboline-9-yl) butane]						5.5	> 300	3.8	6.8	8.5	193 to 194
CCCCOc1ccc2c3ccnc(C)c3n(CCCCCCn3c4cc(OCCCC)ccc4c4ccnc(C)c43)c2c1 [Compound 24, 1,6-bis(7-n-butoxy-1-methyl-β-carboline-9-yl) hexane]						> 300	56	> 300	> 300	> 300	
CCOC(=O)c1cc2c3ccccc3n(CCCCCn3c4ccccc4c4cc(C(=O)OCC)nc(-c5cccnc5)c43)c2c(-c2cccnc2)n1 [Compound 29, 1,5-bis[3-ethyoxylcarbonyl-1-(pyridine-3-yl)-β-carboline-9-yl]pentane]	> 300	132	13	15.7	24.1						
CCOC(=O)c1cc2c3ccccc3n(CCCCCCn3c4ccccc4c4cc(C(=O)OCC)nc(-c5cccnc5)c43)c2c(-c2cccnc2)n1 [Compound 30, 1,6-bis[3-ethyoxylcarbonyl-1-(pyridine-3-yl)-β-carboline-9-yl]hexane]	68.3	> 300	> 300	> 300	> 300						
O=[N+]([O-])c1ccc(Cl)c(-c2nccc3c4ccccc4n(CCCCCCCCCn4c5ccccc5c5ccnc(-c6cc([N+](=O)[O-])ccc6Cl)c54)c23)c1 [Compound 38, 1,9-bis[1-(2-chloro-5-nitrophenyl)-β-carboline-9-yl) nonane]						> 300	1.8	> 300	> 300	> 300	
